Data from US8263736B2, “Compounds and their effects on feeding behaviour” (Imperial Innovations Limited, priority 2006, dated 2012).

What was measured:
Male C57BL/6 mice [1] = test: Food intake in fasted mice after a single intraperitoneal injection (Example 1, 3 different PYY analogues); type: in vivo; conditions: single i.p. injection
Method: (§1) Male C57BL/6 mice (20-30 g) were used for all mouse experiments. Mice were individually housed in IVC cages. Animals were randomised by weight and fasted overnight for 16 hrs before intraperitoneal injection at 9 am. Food intake was measured at 1, 2, 3, 4, 6, 8 and 24 hours post injection. All peptide solutions were prepared freshly the morning of the study and injected as 100 ul. All statistics are calculated using a one-way ANOVA with Dunnett's post-test or one-way ANOVA with Bonferroni post-test.
(§2) A control of saline was used.

Male C57BL/6 mice [2] = test: Food intake in fasted mice, dose response experiment for PYY3-36Lys12Lauryl (Example 2); type: in vivo
Method: as §1, §2

PYY3-36Lys12Lauryl: PYY3-36 with the residue at position 12 replaced with a lysine residue coupled to a lauroyl group, SEQ ID NO: 14
overall reduction in cumulative food intake versus saline control (Male C57BL/6 mice [1]; 120 nmol/kg, 24 hour period, fasted mice): 6.1% | persistence of effect on food intake compared with saline, PYY3-36 (30 nmol/kg) and PYY3-36Lys12 (60 and 120 nmol/kg) (Male C57BL/6 mice [1]): most sustained effect | onset of food intake reduction compared with 60 nmol/kg native PYY3-36 (Male C57BL/6 mice [2]; 240 nmol/kg, mice): slower onset of food intake reduction | persistence of food intake reduction compared with 60 nmol/kg native PYY3-36 (Male C57BL/6 mice [2]; 240 nmol/kg, mice): greater persistence of effect | food consumed in the first, second and third hour: relation to dose (Male C57BL/6 mice [2]; 60, 120 and 240 nmol/kg, single i.p. injection, 240 greater effect than 120, both greater than 60 nmol/kg): does-response relationship | time at which food intake (in a given time period) becomes greater than in saline control mice (Male C57BL/6 mice [2]; single i.p. injection, PYY3-36Lys12Lauryl 60, 120, 240 nmol/kg, PYY3-36 30 nmol/kg, FIG. 5): around 6 hours
